# Laboratory results taken from US12599597B2, “Substituted N-benzhydrylacetamide inhibitors of jumanji domain histone demethylases for the treatment of cancer” (University of Kentucky Research Foundation, priority 2020, dated 2026).
# Assays:
# [1] = system: H3K9Me2 on the promoter of c-Myc gene; test: ChIP assay followed by qPCR; type: cell-based
# From the text: (§1) CBA-1 increased repressive histone methylation on Wnt target genes. The present inventors reported that mutations in APC or β-catenin N-terminal phosphorylation sites prevented β-catenin degradation in CRC cells. […] Because CBA-1 inhibited Wnt signaling in CRC cells, it was reasonable to assume that it inhibited Wnt signaling downstream of β-catenin, most likely by blocking β-catenin activity in the nucleus. Consequently, the present inventors hypothesized that CBA-1 inhibited Wnt signaling epigenetically by altering chromatin remodeling, and they probed the effects of CBA-1 on histone methylation in CRC cells.
# [2] = system: DLD1; test: Colon cancer cell proliferation; type: cell-based
# Method: (§2) FIGS. 5A-B show an image and graph illustrating validation of CBA-1. (A) CBA-1 repressed Wnt targets in LS174T CRC cells. (B) CBA-1 inhibited CRC cell proliferation (5d, Vi-Cell viability assay).
# (§3) The effects of these compounds on proliferation of colon cancer cell line LS174T and DLD1 were analyzed.
# (§4) Identification of a CBA-1 as a novel Wnt inhibitor. The present inventors routinely use TOPFlash reporter assay for Wnt inhibitor screening. To mimic the constitutively active Wnt signaling found in CRC cells, Wnt signaling was activated by inhibiting GSK3 and stabilizing β-catenin. From screening in house small-molecule libraries, CBA-1 (FIG. 4) was identified that inhibited Wnt signaling in TOPFlash reporter assay. To validate the screening results, CBA-1 was tested in CRC cells.
# [3] = system: LS174T; test: Colon cancer cell proliferation; type: cell-based
# Method: as §2, §3, §4
# [4] = system: histone methylation in HEK293T cells; test: Histone methylation in HEK293T cells; type: cell-based; conditions: 5 μM
# Method: To determine if 58B1 regulates Wnt signaling through epigenetic mechanism, the effects of 58B1 on histone methylation were analyzed. […] Similar results were found in LS174T colon cancer cells. H3K9 and H3K27 methylations are negative regulators of transcription. Without wishing to be bound by theory, it is believed that 58B1 inhibited Wnt signaling by increasing H3K9 or H3K27 methylation on Wnt target gene promotors.
# [5] = system: Wnt signaling; test: TOPFlash (Wnt) reporter assay in stable HEK293T cell line; type: cell-based
# From the text: Wnt signaling is a key target for multiple human cancers, including but not limited to colon cancer, liver cancer, and lung cancer. To identify novel Wnt regulators by high throughput screening, a stable HEK293T cell line containing the TOPFlash reporter was established. Since β-catenin is often activated by mutations in the Wnt pathway, it is important to inhibit Wnt signaling downstream of β-catenin activity. Therefore, the screen was specifically designed to identify Wnt inhibitors that target events downstream of β-catenin. The Wnt signaling was activated by treating cells with lithium chloride to inhibit GSK3 and to stabilize β-catenin, mimicking the constitutively active Wnt signaling in cancer cells. Through this screen, a family of novel Wnt inhibitors that inhibited Wnt signaling at a 0.5-10 μM concentrations (Table 1) was identified.
# After 6 h, the cells were treated with 25 mM LiCl to activate Wnt signaling. The inhibition ratio of each compound was determined (Table 1).
# For the SAR studies, 58B1 (VMS-7-133) was re-synthesized. Additionally, SD70, a commercial KDM4 inhibitor, was both purchased and re-synthesized (VMS-7-175). […] VMS-7-195 is a biotinylated analog of 58B1. […] Specific KDM inhibitors may be used to target specific KDMs, such as KDM3A, which is highly expressed in many human cancers.
# as §4
# [6] = system: Wnt signaling; test: Zebrafish Wnt signaling models; type: in vivo
# From the text: FIGS. 1A-F show a KDM3A inhibitor, called “58B1,” that inhibited Wnt signaling in vitro and in vivo. (A) Docking of 58B1 to the Jumonji domain. (B) 58B1 inhibited KDM3A enzymatic activity in vitro. (C) KDM3A was overexpressed in CRC. (D) 58B1 increased repressor markers, H3K9Me^2 and K3K9Me^3. (E) 58B1 inhibited Wnt target genes in CRC cells. (F) 58B1 inhibited Wnt signaling in a transgenic zebrafish model. In this model, GFP was control by a Wnt-responsive promoter. In the control fish, GFP was expressed in the tail, where has higher levels on Wnt signaling. 58B1 treatment abolished GFP expression in the tail.
# CBA-1 inhibited Wnt signaling in Zebrafish models. Zebrafish provide a well-established in vivo model to study Wnt signaling. Wnt signaling is active in the tail of the larvae during development (FIG. 4), and CBA-1 inhibited Wnt signaling in the tail. […] To rule out the possibility that CBA-1 inhibits the Wnt-mediated phenotype through nonspecific or even toxic effects, an eye-rescue experiment was performed.
# [7] = system: histone methylation in CRC cells; test: Histone methylation in CRC cells; type: cell-based
# From the text: as §1
# [8] = system: SW620; test: Colon cancer cell proliferation; type: cell-based; conditions: SW620 (APC mutation); 5d, Vi-Cell viability assay
# From the text: as §2, §4
smiles,measurement,setting,value
CCCC(=O)NC(c1ccc(N(CC)CC)cc1)c1cc(Cl)c2cccnc2c1O (centres unmarked) [58B1],levels of H3K9Me2 on the promoter of c-Myc gene,"[1]; ChIP, qPCR",increased
same,active markers H3K9Ac and H3K4Me^3 on the promoter of Wnt target genes in CRC cells,[1]; expected,decrease
same,repressive marker H3K9Me^2 on the promoter of Wnt target genes in CRC cells,[1]; expected,increase
same,proliferation of CRC cell lines,"[2]; DLD1 (APC mutation), 5d, Vi-Cell viability assay",inhibited proliferation
same,proliferation of colon cancer cell line,"[2]; DLD1, at low nanomolar concentrations",strongly inhibited
same,proliferation of CRC cell lines,"[3]; LS174T (β-catenin mutation), 5d, Vi-Cell viability assay",inhibited proliferation
same,proliferation of colon cancer cell line,"[3]; LS174T, at low nanomolar concentrations",strongly inhibited
same,H3K4me^2,[4],not
same,H3K9Me^3,[4],induced
same,H3K9 dimethylation (H3K9Me^2),[4],strongly induced
same,H3K27Me^3,[4],induced
same,inhibition,"[5]; Homo sapiens, HEK-293T, Table 1, HEK293T TOPFlash, 25 mM LiCl after 6 h",95%
same,inhibition at 1 µM,"[5]; Homo sapiens, HEK-293T, Table 3, Wnt reporter assay at 1 μM, read-out: Percent inhibition at 1 μM",90.9%
same,Wnt signaling in TOPFlash reporter assay,[5]; screening of in house libraries,inhibited
same,GFP expression in the tail (Wnt-responsive promoter),[6]; transgenic zebrafish model,abolished
same,Wnt-dependent tail regeneration,[6]; zebrafish,reduced
same,toxicity in eye-rescue experiment,[6]; zebrafish,without obvious toxicity effects
same,Wnt signaling in the tail,[6]; zebrafish larvae,inhibited
same,Wnt-induced eye defects (eye-rescue experiment),"[6]; zebrafish, dose-responsive manner",rescued
same,H3K4Me^2,[7],no effect
same,levels of H3K9Me^2,[7],significantly increased
same,levels of H3K9Me^3,[7],significantly increased
same,proliferation of CRC cell lines,[8],inhibited proliferation
